Assay results reported in ChEMBL document CHEMBL3734750, “A click chemistry approach for the synthesis of mono and bis aryloxy linked coumarinyl triazoles as anti-tubercular agents” (2015).
In brackets after ≈: the same amount, converted by molar mass.

How the values were obtained:
[1] = tested on: Mycobacterium tuberculosis; experiment: Antitubercular activity against Mycobacterium tuberculosis after 5 days by microplate Alamar blue assay; type: functional; conditions: 120 h
[2] = tested on: Mycobacterium tuberculosis; experiment: Antitubercular activity against Mycobacterium tuberculosis H37Rv after 5 days by microplate Alamar blue assay; type: functional; conditions: for MIC: Mycobacterium tuberculosis, H37Rv, 120 h

SMILES	MIC [1]	-logMIC [2]	MIC [2]
Cc1cc(=O)oc2cc(OCc3cn(Cc4cc(=O)oc5ccc(Cl)cc45)nn3)ccc12	6.25 µg/mL (≈ 13.9 µM)		
COc1ccc(OCc2cn(Cc3cc(=O)oc4cc(C)ccc34)nn2)cc1		4.3	50 µg/mL (≈ 132 µM)
Cc1ccc2oc(=O)cc(Cn3cc(COc4ccc(OCc5cn(Cc6cc(=O)oc7ccc(C)cc67)nn5)cc4)nn3)c2c1		6.69	0.2 µg/mL (≈ 0.324 µM)
COc1ccc2oc(=O)cc(Cn3cc(COc4ccc(Br)cc4)nn3)c2c1		4.3	50 µg/mL (≈ 113 µM)
Cc1ccc2c(Cn3cc(COc4ccc(Br)cc4)nn3)cc(=O)oc2c1		4.3	50 µg/mL (≈ 117 µM)
COc1ccc(OCc2cn(Cc3cc(=O)oc4ccc(C)cc34)nn2)cc1		4.3	50 µg/mL (≈ 132 µM)
O=c1cc(Cn2cc(COc3ccc(Br)cc3)nn2)c2ccc(Cl)cc2o1		4.3	50 µg/mL (≈ 112 µM)
Cc1ccc2c(Cn3cc(COc4ccc(OCc5cn(Cc6cc(=O)oc7c(C)c(C)ccc67)nn5)cc4)nn3)cc(=O)oc2c1C		5.5	3.12 µg/mL (≈ 4.85 µM)
COc1ccc(OCc2cn(Cc3cc(=O)oc4cc(C)cc(C)c34)nn2)cc1		4.3	50 µg/mL (≈ 128 µM)
COc1ccc(OCc2cn(Cc3cc(=O)oc4ccc5ccccc5c34)nn2)cc1		4.3	50 µg/mL (≈ 121 µM)
COc1ccc(OCc2cn(Cc3cc(=O)oc4ccc(OC)cc34)nn2)cc1		4.3	50 µg/mL (≈ 127 µM)
COc1ccc(OCc2cn(Cc3cc(=O)oc4ccc(Br)cc34)nn2)cc1		4.3	50 µg/mL (≈ 113 µM)
O=c1cc(Cn2cc(COc3ccc(Br)cc3)nn2)c2ccc3ccccc3c2o1		4	100 µg/mL (≈ 216 µM)
COc1ccc(OCc2cn(Cc3cc(=O)oc4cc(OC)ccc34)nn2)cc1		4.3	50 µg/mL (≈ 127 µM)
Cc1ccc2c(Cn3cc(COc4ccc(Cl)cc4)nn3)cc(=O)oc2c1		4.3	50 µg/mL (≈ 131 µM)
COc1ccc(OCc2cn(Cc3cc(=O)oc4c3ccc3ccccc34)nn2)cc1		4.3	50 µg/mL (≈ 121 µM)

SMILES	MIC [1]	-logMIC [2]	MIC [2]
O=c1cc(Cn2cc(COc3ccc(Br)cc3)nn2)c2cc(Br)ccc2o1		4.3	50 µg/mL (≈ 102 µM)
COc1ccc(OCc2cn(Cc3cc(=O)oc4cc(Cl)ccc34)nn2)cc1		4.3	50 µg/mL (≈ 126 µM)
Cc1cc(C)c2c(Cn3cc(COc4ccc(OCc5cn(Cc6cc(=O)oc7cc(C)cc(C)c67)nn5)cc4)nn3)cc(=O)oc2c1		5.2	6.25 µg/mL (≈ 9.69 µM)
Cc1ccc2c(Cn3cc(COc4ccc(OCc5cn(Cc6cc(=O)oc7cc(C)ccc67)nn5)cc4)nn3)cc(=O)oc2c1		5.2	6.25 µg/mL (≈ 10.1 µM)
Cc1ccc2oc(=O)cc(Cn3cc(COc4ccc(Br)cc4)nn3)c2c1		4.3	50 µg/mL (≈ 117 µM)
COc1ccc2c(Cn3cc(COc4ccc(OCc5cn(Cc6cc(=O)oc7cc(OC)ccc67)nn5)cc4)nn3)cc(=O)oc2c1		5.2	6.25 µg/mL (≈ 9.64 µM)
O=c1cc(Cn2cc(COc3ccc(Br)cc3)nn2)c2c(ccc3ccccc32)o1		4	50 µg/mL (≈ 108 µM)
Cc1ccc2oc(=O)cc(Cn3cc(COc4ccc(Cl)cc4)nn3)c2c1		4.3	50 µg/mL (≈ 131 µM)
O=c1cc(Cn2cc(COc3ccc(OCc4cn(Cc5cc(=O)oc6c5ccc5ccccc56)nn4)cc3)nn2)c2ccc3ccccc3c2o1		4.93	12.5 µg/mL (≈ 18.2 µM)
O=c1cc(Cn2cc(COc3ccc(Cl)cc3)nn2)c2cc(Br)ccc2o1		4.3	50 µg/mL (≈ 112 µM)
O=c1cc(Cn2cc(COc3ccc(Cl)cc3)nn2)c2c(ccc3ccccc32)o1		4.3	50 µg/mL (≈ 120 µM)
O=c1cc(Cn2cc(COc3ccc(Cl)cc3)nn2)c2ccc(Cl)cc2o1		4.3	50 µg/mL (≈ 124 µM)
O=C(O)c1cn(C2CC2)c2cc(N3CCNCC3)c(F)cc2c1=O [CIPROFLOXACIN]			3.12 µg/mL (≈ 9.43 µM)
NC(=O)c1cnccn1 [PYRAZINAMIDE]			3.12 µg/mL (≈ 25.4 µM)
CN[C@@H]1[C@H](O[C@H]2[C@H](O[C@H]3[C@H](O)[C@@H](O)[C@H](N=C(N)N)[C@@H](O)[C@@H]3N=C(N)N)O[C@@H](C)[C@]2(O)C=O)O[C@@H](CO)[C@H](O)[C@H]1O [STREPTOMYCIN]			6.25 µg/mL (≈ 10.7 µM)
